“Also recorded” adds a separate entry of the source. Read-outs that look alike come from different tables or passages of the source.
Legend:
[1] = tested on: cortical neurons and glia; experiment: Chemical hypoxia (azide) and glucose deprivation in cortical cell cultures, medium LDH; type: cell-based, Swiss Webster mice; details: for effect on potentiation of azide toxicity/glucose deprivation by GSH: 3 mM azide plus 100 μM GSH plus compound; for effect on potentiation of azide toxicity/glucose deprivation by GSH / effect on potentiation of azide toxicity by mercaptoethanol: 30 min; for effect on azide neurotoxicity in glucose-free buffer (neuronal death): 3 mM azide 30 min with compound, LDH 21-25 h later; for effect on potentiation of azide toxicity by mercaptoethanol: 3 mM azide plus 100 μM mercaptoethanol plus compound
Experimental: Primary cultures containing both cortical neurons and glia were prepared from gravid Swiss Webster mice as previously described. (Regan , R. F. and Choi, D. W., The effect of NMDA, AMPA/kainate, and calcium channel antagonists on traumatic cortical neuronal injury in culture, Brain Res, 633: 236-242, 1994). Plating medium consisted of Eagle's minimal essential medium (MEM), 5% equine serum, 5% fetal bovine serum, 2 mM glutamine, and 23 mM glucose. Cultures were incubated in 5% CO2 at 37° C. Two-thirds of the culture medium was exchanged twice weekly with MEM containing 10% equine serum, 2 mM glutamine, and 23 mM glucose. Glial cell division was inhibited at 4-7 days in vitro with 10^−5 M cytosine arabinoside.
Chemical hypoxia was induced with 3 mM azide, which unlike cyanide is not volatile and has little effect on copper-zinc and manganese superoxide dismutases at low millimolar concentrations. (Misra, H. P. and Fridovich, I., Inhibition of superoxide dismutases by azide, Arch Biochem Biophys 189: 317-322, 1978). Experiments were conducted at 13-16 days in vitro in a glucose-free buffer containing 116 mM NaCl, 5.4 mM KCl, 1.8 mM CaCl2, 1 mM NaH2PO4, 26.2 mM NaHCO3, 0.8 mM MgSO4, and amino acids (MEM amino acids, Sigma Chemical Co., St. Louis, Mo., U.S.A.). After incubation for 30-90 min at 37° C. in 5% CO2, cultures were washed into MEM containing 10 mM glucose and were returned to the incubator.
Cell death was estimated 21-25 h after azide exposure by inspection under phase-contrast microscopy, and was quantified by assaying lactate dehydrogenase (LDH) activity in the medium, as previously described. (Regan, R. F. and Panter, S. S., Traumatic neuronal injury in cortical cell culture is attenuated by 21-aminosteroids, Brain Res, 682: 144-150, 1995). Medium LDH in this culture system is an accurate marker of neuronal death that correlates well with cell counts. (Koh, J. Y. and Choi, D. W., Vulnerability of cultured cortical neurons to damage by excitotoxins: Differential susceptibility of neurons containing NADPH-diaphorase, J Neurosci 8: 2153-2163, 1988). […] (Koh, J. Y. and Choi, D. W., 1988). The LDH activity in the medium of sister cultures exposed to sham wash alone was subtracted from all values to obtain the LDH signal associated specifically with neurotoxin exposure.
Data were analyzed by one-way analysis of variance. Differences between groups and a single mean were assessed with the Dunnett multiple comparisons test; when groups were compared to more than one mean, the Tukey-Kramer post hoc test was used.

[2] = tested on: murine cortical cell cultures (neurons), NMDA receptor; experiment: NMDA neurotoxicity in murine cortical cell cultures, medium LDH; type: cell-based, Swiss Webster mice; details: for effect on potentiation of NMDA neurotoxicity by mercaptoethanol: NMDA plus 1 mM mercaptoethanol plus equimolar compound; for effect on potentiation of NMDA neurotoxicity by GSH: NMDA plus GSH plus compound; for effect on NMDA neurotoxicity (neuronal death, medium LDH): compound added with low micromolar NMDA, 20-25 h
Experimental: Cultures were incubated in 5% CO2 at 37° C.
Experiments were conducted at 13-15 days in vitro.

GSH binding sites = details: cited from earlier work
cortical cell culture = details: low micromolar concentrations; cited from earlier work
native NMDA receptor = biological target: T1, native NMDA receptor (Rattus norvegicus, UniProt P35439); details: cited from earlier work
T1 construct: host or cells: cultured forebrain, cortical or retinal neurons (endogenous receptor)

[3] = tested on: NMDA receptor-mediated neurotoxicity; details: cited from earlier work
[4] = tested on: murine cortical cell cultures; details: millimolar concentrations, 20-25 h, 0 μM NMDA
Experimental: After halothane anesthesia and cervical dislocation, cortical hemispheres were removed and incubated in 0.075% (wt/vol) acetylated trypsin (Sigma T-6763) for 1 h at 37° C. Tissue was dissociated by multiple passages through a narrow bore (flamed) Pasteur pipette, and the cell suspension was plated on confluent glial cultures at a density of 2.25-2.5 hemispheres per 24 well plate.
Experiments were conducted at 13-15 days in vitro. Cultures were exposed to excitatory amino acids in serum-free MEM containing 10 mM glucose.

**Q.** What does the source list for `C[C@]12N[C@H](Cc3ccccc31)c1ccccc12` [MK-801]?
**A.** effect on potentiation of azide toxicity/glucose deprivation by GSH [1]: blocked; LDH release ([2]; 8 μM NMDA plus GSH plus MK-801, scaled to 300 μM NMDA (=100)): −1.24±1.58%; cell death due to 8 μM NMDA plus GSH ([2]; 8 μM NMDA plus GSH plus compound): completely blocked

**Q.** With `CCCCCCSC[C@H](NC(=O)CC[C@H](N)C(=O)O)C(=O)NCC(=O)O` [SHG, S-hexylglutathione] as the molecule, how does the “effect on azide neurotoxicity in glucose-free buffer (neuronal death)” value (“effect … in glucose-free buffer (neuronal death)” for short) [1] read?
**A.** ineffective

**Q.** And the “effect … in glucose-free buffer (neuronal death)” value ([1]; listed as S-hexylglutathione)?
**A.** not increased

**Q.** What about the “effect on potentiation of azide toxicity/glucose deprivation by GSH” value [1] of the same molecule?
**A.** attenuates

**Q.** What about the “effect on potentiation of azide toxicity by mercaptoethanol” value [1] of the same molecule?
**A.** attenuates

**Q.** And the “neuroprotection against azide plus GSH or mercaptoethanol” value (“neuroprotection” for short) ([1]; compound at 1-3 mM)?
**A.** decreasing neuronal death moderately

**Q.** And the “effect on potentiation of NMDA neurotoxicity by (sulfhydryl) reducing agents” value (“effect … (sulfhydryl) reducing agents” below) [2]?
**A.** antagonized

**Q.** And the “effect on potentiation of NMDA neurotoxicity by mercaptoethanol” value [2]?
**A.** blocked the effect of mercaptoethanol

**Q.** What about the “effect on potentiation of NMDA neurotoxicity by mercaptoethanol” value ([2]; listed as S-hexylglutathione) of the same molecule?
**A.** completely blocked

**Q.** What about the “effect on potentiation of NMDA neurotoxicity by GSH” value [2] of the same molecule?
**A.** completely blocked

**Q.** What about the “effect on potentiation of NMDA neurotoxicity by GSH” value ([2]; listed as S-hexylglutathione) of the same molecule?
**A.** completely blocked; also recorded: antagonized the effect of GSH

**Q.** And the “effect on NMDA neurotoxicity (neuronal death, medium LDH)” value (shortened to “effect … (neuronal death, medium LDH)”) [2]?
**A.** no significant effect; also recorded: did not attenuate NMDA neurotoxicity per se

**Q.** What about the “effect … (neuronal death, medium LDH)” value ([2]; listed as S-hexylglutathione) of the same molecule?
**A.** inactive per se

**Q.** And the “effect … (sulfhydryl) reducing agents” value ([2]; listed as S-hexylglutathione)?
**A.** blocked the potentiation

**Q.** What about the “effect on glutathione binding” value (GSH binding sites; listed as S-hexylglutathione) of the same molecule?
**A.** displace glutathione binding; also recorded: selectively inhibited

**Q.** Which results are given for `CCN(CC)c1ccc(N(CC)CC)c(N2CCN(CC(=O)[C@H]3[C@H](C)C[C@H]4[C@@H]5CCC6=CC(=O)C=C[C@]6(C)C5=CC[C@@]43C)CC2)n1.Cl` [U74500A]?
**A.** effect on potentiation of NMDA neurotoxicity by GSH [2]: GSH also potentiated injury in the presence; effect on hemoglobin toxicity (cortical cell culture): blocks hemoglobin toxicity

**Q.** With `CN[C@H](CC(=O)O)C(=O)O` [NMDA, N-methyl-D-aspartate] as the molecule, how does the “neuronal death by NMDA” value ([2]; 24 μM NMDA) read?
**A.** widespread neuronal death

**Q.** And the “neuronal death by NMDA” value ([2]; 300 μM NMDA, sister cultures (=100))?
**A.** essentially complete neuronal death without injuring glia

**Q.** For `N[C@@H](CS)C(=O)O` [cysteine], which “effect on glutathione binding” value (GSH binding sites) is on record?
**A.** selectively inhibited

**Q.** With `N[C@@H](CCC(=O)O)C(=O)O` [glutamate] as the molecule, how does the “effect on glutathione binding” value (GSH binding sites) read?
**A.** not

**Q.** Which “effect on native NMDA receptor responses” value (native NMDA receptor) does the source give for oxidized glutathione [GSSG] here?
**A.** inhibitory

**Q.** And the “effect … in glucose-free buffer (neuronal death)” value [1]?
**A.** ineffective; also recorded: not increased

**Q.** What about the “effect on potentiation of azide toxicity/glucose deprivation by GSH” value [1] of the same molecule?
**A.** most neurons have survived; also recorded: attenuates

**Q.** And the “effect on potentiation of azide toxicity by mercaptoethanol” value [1]?
**A.** attenuates

**Q.** And the “effect on neuronal death induced by prolonged azide exposure” value ([1]; azide 60-90 min in the absence of GSH)?
**A.** no significant effect

**Q.** And the “neuroprotection” value ([1]; compound at 1-3 mM)?
**A.** robust effect

**Q.** What about the “neuroprotection” value ([1]; equimolar compound (100 μM)) of the same molecule?
**A.** weak and somewhat variable neuroprotection

**Q.** What about the “effect … (sulfhydryl) reducing agents” value [2] of the same molecule?
**A.** antagonized

**Q.** What about the “effect on potentiation of NMDA neurotoxicity by mercaptoethanol” value [2] of the same molecule?
**A.** completely blocked; also recorded: blocked the effect of mercaptoethanol

**Q.** And the “effect on potentiation of NMDA neurotoxicity by mercaptoethanol” value ([2]; listed as oxidized glutathione)?
**A.** blocked

**Q.** And the “effect … (neuronal death, medium LDH)” value [2]?
**A.** no significant effect; also recorded: did not attenuate NMDA neurotoxicity per se

**Q.** What about the “effect on NMDA neurotoxicity” value [3] of the same molecule?
**A.** attenuated NMDA neurotoxicity

**Q.** And the “toxicity of compound alone” value [4]?
**A.** nontoxic

**Q.** For `CSC[C@H](NC(=O)CC[C@H](N)C(=O)O)C(=O)NCC(=O)O` [SMG, S-methylglutathione], which “effect … (sulfhydryl) reducing agents” value [2] is on record?
**A.** blocked the potentiation

**Q.** And the “effect on potentiation of NMDA neurotoxicity by GSH” value [2]?
**A.** blocks the potentiation; also recorded: completely blocked; also recorded: antagonized the effect of GSH

**Q.** And the “effect … (neuronal death, medium LDH)” value [2]?
**A.** inactive per se

**Q.** And the “effect on glutathione binding” value (GSH binding sites)?
**A.** displace glutathione binding

**Q.** With `NS(=O)(=O)c1cccc2c1c([N+](=O)[O-])cc1[nH]c(=O)c(=O)[nH]c12` [NBQX, 1,2,3,4-tetrahydro-6-nitro-2,3-dioxo-benzo[f]quinoxaline-7-sulfonamide] as the molecule, how does the “effect on potentiation of azide toxicity/glucose deprivation by GSH” value [1] read?
**A.** not and no effect

**Q.** Which “toxicity of azide alone” value ([1]; 3 mM azide in glucose-free medium, 30 minutes) does the source give for `[N-]=[N+]=[N-]` [azide] here?
**A.** tolerated by most neurons

**Q.** Which “effect … in glucose-free buffer (neuronal death)” value [1] does the source give for `O[C@H](CS)[C@H](O)CS` (racemic) [dithiothreitol] here?
**A.** concentration-toxicity profile that was similar to GSH

B1: catalase: catalase, added at a concentration sufficient to inhibit the neurotoxicity of the pro-oxidant hemoglobin (protein, UniProt P00432 2-527, looked up)
Catalase: ADNRDPASDQMKHWKEQRAAQKPDVLTTGGGNPVGDKLNSLTVGPRGPLLVQDVVFTDEMAHFDRERIPERVVHAKGAGAFGYFEVTHDITRYSKAKVFEHIGKRTPIAVRFSTVAGESGSADTVRDPRGFAVKFYTEDGNWDLVGNNTPIFFIRDALLFPSFIHSQKRNPQTHLKDPDMVWDFWSLRPESLHQVSFLFSDRGIPDGHRHMNGYGSHTFKLVNANGEAVYCKFHYKTDQGIKNLSVEDAARLAHEDPDYGLRDLFNAIATGNYPSWTLYIQVMTFSEAEIFPFNPFDLTKVWPHGDYPLIPVGKLVLNRNPVNYFAEVEQLAFDPSNMPPGIEPSPDKMLQGRLFAYPDTHRHRLGPNYLQIPVNCPYRARVANYQRDGPMCMMDNQGGAPNYYPNSFSAPEHQPSALEHRTHFSGDVQRFNSANDDNVTQVRTFYLKVLNEEQRKRLCENIAGHLKDAQLFIQKKAVKNFSDVHPEYGSRIQALLDKYNEEKPKNAVHTYVQHGSHLSAREKANL
**Q.** Which “effect on potentiation of NMDA neurotoxicity by GSH” value [2] does the source give for B1 here?
**A.** No effect was observed

Reference: patent publication US20010053797A1 (priority 1998, published 2001)
